Patent EP0734445B1, “CHIMERIC GENES AND METHODS FOR INCREASING THE LYSINE CONTENT OF THE SEEDS OF CORN, SOYBEAN AND RAPESEED PLANTS” (priority 1993, dated 1995)

Legend:
[1] = system: Gif106M1 transformed with pBT436; assay: Growth inhibition in M9 media; type: cell-based, E. coli; conditions: M9 media with arginine, isoleucine, ampicillin; reversed by threonine plus methionine
Experimental: Addition of lysine (or diaminopimelate which is readily converted to lysine in vivo) at a concentration of approximately 0.2 mM to the growth medium inhibits the growth of Gif106M1 transformed with pBT436. M9 media [see Sambrook et al. (1989) Molecular Cloning: a Laboratory Manual, Cold Spring Harbor Laboratory Press] supplemented with the arginine and isoleucine, required for Gif106M1 growth, and ampicillin, to maintain selection for the pBT436 plasmid, was used. This inhibition is reversed by addition of threonine plus methionine to the growth media. […] This property of pBT436-transformed Gif106M1 was used to select for mutations in lysC that encoded lysine-insensitive AKIII.

[2] = molecular target: T1, Corynebacterium DHDPS (Corynebacterium glutamicum, UniProt P19808, S2A); assay: DHDPS enzyme activity assay; type: biochemical; conditions: lysine at 70 mM in the enzyme reaction mix
T1 construct: An 870 bp Nco I-EcoR I fragment from pFS766 containing the entire cordapA coding region; made in house; host or cells: E. coli BL21(DE3)/pFS766, supernatant of uninduced extract
Experimental: (§1) DHDPS enzyme activity was assayed as follows: Assay mix (for 10 X 1.0 mL assay tubes or 90 X 0.25 mL for microtiter dish); made fresh, just before use:
(§2) Color allowed to develop for 30-60 min. Precipitate spun down in eppendorf centrifuge. OD540 vs 0 min read as blank. For MicroAssay, aliquot 0.2 mL into microtiter well and read at OD530.
(§3) The specific activity of E. coli DHDPS in the supernatant fraction of induced extracts was about 50 OD540 units per minute per milligram protein in a 1.0 mL assay. E. coli DHDPS was sensitive to the presence of L-lysine in the assay. Fifty percent inhibition was found at a concentration of about 0.5 mM. For Corynebacterium DHDPS, the activity was measured in the supernatant fraction of uninduced extracts, rather than induced extracts. Enzyme activity was about 4 OD530 units per minute per milligram protein in a 0.25 mL assay.

[3] = molecular target: T2, E. coli DHDPS (Escherichia coli, UniProt P0A6L2, F2V); assay: DHDPS enzyme activity assay; type: biochemical
T2 construct: An 880 bp Nco I-Kpn I fragment from pBT443 containing the entire ecodapA coding region; made in house; host or cells: E. coli BL21(DE3)/pBT442, supernatant of IPTG-induced extract
Experimental: as §1, §2, §3

[4] = molecular target: T3, AKIII encoded by mutant lysC genes (Escherichia coli, UniProt P08660, T352I); assay: Inhibition of AKIII by lysine (mutant lysC genes); type: biochemical, E. coli; conditions: 15mM lysine; three of six mutant lysC plasmids
T3 construct: made in house; host or cells: E. coli (mutant derivatives of pBT436 selected in Gif106M1; the extract used is not described)
Experimental: (§4) Single colonies of Gif106M1 transformed with pBT436 were picked and resuspended in 200 µL of a mixture of 100 µL 1% lysine plus 100 µL of M9 media. The entire cell suspension containing 10^7-10^8 cells was spread on a petri dish containing M9 media supplemented with the arginine, isoleucine, and ampicillin. Sixteen petri dishes were thus prepared. From 1 to 20 colonies appeared on 11 of the 16 petri dishes. One or two (if available) colonies were picked and retested for lysine resistance and from this nine lysine-resistant clones were obtained. Plasmid DNA was prepared from eight of these and re-transformed into Gif106M1 to determine whether the lysine resistance determinant was plasmid-borne. Six of the eight plasmid DNAs yielded lysine-resistant colonies. Three of these six carried lysC genes encoding AKIII that was uninhibited by 15mM lysine, whereas wild type AKIII is 50% inhibited by 0.3-0.4 mM lysine and >90% inhibited by 1 mM lysine (see Example 2 for details).
The sequences of the three mutant lysC genes that encoded lysine-insensitive AK each differed from the wild type sequence by a single nucleotide, resulting in a single amino acid substitution in the protein. […] Thus, either of these single amino acid substitutions is sufficient to render the AKIII enzyme insensitive to lysine inhibition.

[5] = molecular target: T4, wild type AKIII (Escherichia coli, UniProt P08660); assay: Inhibition of AKIII by lysine; type: biochemical, E. coli
T4 construct: made in house; host or cells: E. coli (pBT436 in AK-deficient strain Gif106M1)
Experimental: as §4

[6] = system: DE126; assay: Growth inhibition in synthetic medium; type: cell-based, E. coli
Excerpt: To select clones that carried the LKR gene a specially designed E. coli host, DE126 was constructed. Construction of DE126 occurred in several stages. • (1) A generalized transducing stock of coliphage Plvir was produced by infection of a culture of TST1 [F^-, araD139, delta (argF-lac) 205, flb5301, ptsF25, relA1, rpsL150, malE52::Tn10, deoC1, λ^-] (E. coli Genetic Stock Center #6137) using a standard method (for Methods see J. Miller, Experiments in Molecular Genetics). • (2) This phage stock was used as a donor in a transductional cross (for Method see J. Miller, Experiments in Molecular Genetics) with strain GIF106M1 [F^-, arg-, ilvA296, lysC1001, thrA1101, metL1000, λ^-, rpsL9, malT1, xyl-7, mtl-2, thi1(?), supE44(?)] (E. coli Genetic Stock Center #5074) as the recipient. Recombinants were selected on rich medium [L supplemented with DAP] containing the antibiotic tetracycline. […] The genes malE and lysC are separated by less than 0.5 minutes, well within cotransduction distance. • (3) 200 tetracycline-resistant transductants were thoroughly phenotyped; appropriate fermentation and nutritional traits were scored. […] The phenotype of one clone was determined to be Ilv^+, Arg^-, TetR, Lysine-sensitive, male specific phage (MS2)-sensitive, consistent with the simple transfer of F'16 from AB1528 to DE125. […]

T1 sequence (P19808 whole entry S2A, the tested form may be a part): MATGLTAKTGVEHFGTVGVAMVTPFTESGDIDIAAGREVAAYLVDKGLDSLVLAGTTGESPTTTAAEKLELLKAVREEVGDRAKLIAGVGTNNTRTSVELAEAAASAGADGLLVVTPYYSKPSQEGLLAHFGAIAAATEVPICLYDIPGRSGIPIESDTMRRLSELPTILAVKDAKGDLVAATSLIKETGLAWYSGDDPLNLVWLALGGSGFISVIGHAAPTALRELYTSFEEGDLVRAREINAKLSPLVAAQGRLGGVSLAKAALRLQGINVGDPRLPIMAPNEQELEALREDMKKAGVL
T4 sequence (P08660 2-449): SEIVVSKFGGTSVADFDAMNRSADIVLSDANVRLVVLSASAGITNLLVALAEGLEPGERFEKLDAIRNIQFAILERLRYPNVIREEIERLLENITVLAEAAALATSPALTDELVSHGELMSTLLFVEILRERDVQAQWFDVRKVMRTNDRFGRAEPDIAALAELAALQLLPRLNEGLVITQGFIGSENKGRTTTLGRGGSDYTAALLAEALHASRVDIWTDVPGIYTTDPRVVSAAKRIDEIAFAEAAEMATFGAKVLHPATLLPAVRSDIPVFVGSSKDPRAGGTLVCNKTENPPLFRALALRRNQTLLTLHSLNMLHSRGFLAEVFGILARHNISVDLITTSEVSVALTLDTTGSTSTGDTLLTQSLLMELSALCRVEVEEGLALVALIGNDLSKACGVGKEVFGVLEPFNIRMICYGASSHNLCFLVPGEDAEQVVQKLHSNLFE
T2 sequence (P0A6L2 whole entry F2V, the tested form may be a part): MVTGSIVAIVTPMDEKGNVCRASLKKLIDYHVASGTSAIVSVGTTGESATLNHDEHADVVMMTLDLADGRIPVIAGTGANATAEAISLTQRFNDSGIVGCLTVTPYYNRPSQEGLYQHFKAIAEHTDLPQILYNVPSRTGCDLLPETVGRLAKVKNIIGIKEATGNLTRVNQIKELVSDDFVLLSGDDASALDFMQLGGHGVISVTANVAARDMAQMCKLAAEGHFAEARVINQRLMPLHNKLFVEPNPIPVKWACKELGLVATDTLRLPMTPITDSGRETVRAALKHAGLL
T3 sequence (P08660 whole entry T352I): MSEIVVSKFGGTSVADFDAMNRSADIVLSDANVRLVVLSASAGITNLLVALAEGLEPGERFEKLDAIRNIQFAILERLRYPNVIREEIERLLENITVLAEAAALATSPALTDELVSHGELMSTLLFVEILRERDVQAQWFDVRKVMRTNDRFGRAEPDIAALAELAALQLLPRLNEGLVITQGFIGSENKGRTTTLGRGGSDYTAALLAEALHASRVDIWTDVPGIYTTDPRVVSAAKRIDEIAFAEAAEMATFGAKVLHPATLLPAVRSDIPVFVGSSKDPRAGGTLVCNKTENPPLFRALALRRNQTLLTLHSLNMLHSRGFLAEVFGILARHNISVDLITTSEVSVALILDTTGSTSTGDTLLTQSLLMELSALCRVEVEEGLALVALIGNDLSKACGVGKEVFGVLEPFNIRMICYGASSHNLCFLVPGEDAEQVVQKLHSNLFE

Compound | concentration in the growth medium that inhibits growth [1] | inhibition by L-lysine [2] | inhibition by L-lysine ([2]; listed as lysine) | IC50 [3] [µM] | fold less sensitive to inhibition by lysine than a typical plant enzyme, e.g., wheat DHDPS [3] | inhibition by lysine [4] | inhibited ([5]; 1 mM lysine) [%] | IC50 ([5]; read-out: 50% inhibited, lysine concentration) [µM] | concentration of L-lysine that inhibits growth [6] [µg/mL]
NCCCC[C@H](N)C(=O)O [L-lysine] | approximately 0.2 mM | not inhibited at all | unaffected | ~500 | at least 20 fold | uninhibited | > 90 | 300 to 400 | 20
NC(CCCC(N)C(=O)O)C(=O)O (stereo not shown) [diaminopimelate] | approximately 0.2 mM |  |  |  |  |  |  |  | 
